# Target: T1, Ara1 (Saccharomyces cerevisiae, UniProt P38115)
# T1 construct: Ni-NTA and Superdex 200; tag cleavage not mentioned; homodimer
# Experiment: X-ray crystallography of co-crystal, […] A
# Conditions: co-crystallised with 5 mM NADPH, pH 6.5, 0.05 M CaCl2, 289 K; cofactor-binding site
compound,measurement,value
NC(=O)C1=CN([C@@H]2O[C@H](COP(=O)(O)OP(=O)(O)OC[C@H]3O[C@@H](n4cnc5c(N)ncnc54)[C@H](OP(=O)(O)O)[C@@H]3O)[C@@H](O)[C@H]2O)C=CC1 [NADPH],"X-ray crystallography of co-crystal, 2.00 A",The structure of the Ara1–NADPH complex showed that a molecule of NADPH binds

# Reference: paper PMC3818031 (Acta Crystallographica Section F: Structural Biology and …, 2013)
